The target in the assay is BRD4 (Homo sapiens, UniProt O60885). Briefly: Time resolved fluorescence resonance energy transfer (TR-FRET) binding assay, bromodomain BRD4. The settings on record: one of the FRET assays described; read-out: FRET BRD4 IC50. For orientation: In TR-FRET formats the signal depends on donor and acceptor labels being close together.

Drawing on patent US9725449B2, “Tricyclic compounds as anticancer agents” (BRISTOL-MYERS SQUIBB COMPANY, priority 2015, dated 2017), this text covers IC50 for 19 compounds.

`Cc1nnn(C)c1-c1cnc2c3ccc(NC(=O)C4CC4)nc3n([C@H](c3ccccc3F)C3CCOCC3)c2c1` [Example 276, N-[5-(Dimethyl-1H-1,2,3-triazol-5-yl)-8-[(S)-(2-fluorophenyl)(oxan-4-yl)methyl]-3,8,10-triazatricyclo[7.4.0.0^2,^7]trideca-1(13),2(7),3,5,9,11-hexaen-11-yl]cyclopropanecarboxamide]: the IC50 is under 0.01 µM.

In the case of `[2H]C([2H])([2H])c1nnn(C)c1-c1cnc2c3c(OC)ncc(S(C)(=O)=O)c3n(C(c3cccc(F)c3)C3CCOCC3)c2c1` (single isomer, unassigned) [Example 86, 8-[(3-Fluorophenyl)(oxan-4-yl)methyl]-10-methanesulfonyl-13-methoxy-5-[4-(^2H3)methyl-1-methyl-1H-1,2,3-triazol-5-yl]-3,8,12-triazatricyclo[7.4.0.0^2,^7]trideca-1(13),2(7),3,5,9,11-hexaene], the IC50 is under 0.01 µM.

As to `[2H]C([2H])([2H])c1nnn(C)c1-c1cnc2c3cnc(C(C)(C)O)cc3n([C@H](c3ccccc3F)C3CCOCC3)c2c1` [Example 332], the IC50 is under 0.01 µM.

For the compound `Cc1nnn(C)c1-c1cnc2c3ccc(N4CCC(C(=O)N(C)C)CC4)nc3n([C@H](c3ccccc3F)C3CCOCC3)c2c1` [Example 271, 1-[5-(Dimethyl-1H-1,2,3-triazol-5-yl)-8-[(S)-(2-fluorophenyl)(oxan-4-yl)methyl]-3,8,10-triazatricyclo[7.4.0.0^2,^7]trideca-1(13),2(7),3,5,9,11-hexaen-11-yl]-N,N-dimethylpiperidine-4-carboxamide], the IC50 is under 0.01 µM.

On to `CC(=O)c1cc2c(cn1)c1ncc(-c3c(C)nnn3C)cc1n2[C@H](c1ccc(F)cc1)C1CCOCC1` [Example 337], for which the IC50 is under 0.01 µM.

In the case of `[2H]C([2H])([2H])c1nnn(C)c1-c1cnc2c3ccc(Cl)nc3n(C(c3ccccc3)C3CCC(F)(F)CC3)c2c1` (stereo not shown) [Example 259, 11-Chloro-8-[(4,4-difluorocyclohexyl)(phenyl)methyl]-5-[4-(^2H3)methyl-1-methyl-1H-1,2,3-triazol-5-yl]-3,8,10-triazatricyclo[7.4.0.0^2,^7]trideca-1(13),2(7),3,5,9,11-hexaene], the IC50 was under 1.5 µM.

For the compound `[2H]C([2H])([2H])c1nnn(C)c1-c1cnc2c3c(OCC4CC4)ncc(S(C)(=O)=O)c3n([C@H](c3ccccc3)C3CCOCC3)c2c1` [Example 59, 13-(Cyclopropylmethoxy)-10-methanesulfonyl-5-[4-(^2H3)methyl-1-methyl-1H-1,2,3-triazol-5-yl]-8-[(S)-oxan-4-yl(phenyl)methyl]-3,8,12-triazatricyclo[7.4.0.0^2,^7]trideca-1(13),2(7),3,5,9,11-hexaene], the IC50 is under 0.001 µM.

Consider `[2H]C([2H])([2H])c1onc(C)c1-c1cnc2c3c(OC)ncc(S(C)(=O)=O)c3n([C@H](c3ccccc3)C3CCOCC3)c2c1` [Example 60, 10-Methanesulfonyl-13-methoxy-5-[5-(^2H3)methyl-3-methyl-1,2-oxazol-4-yl]-8-[(S)-oxan-4-yl(phenyl)methyl]-3,8,12-triazatricyclo[7.4.0.0^2,^7]trideca-1(13),2(7),3,5,9,11-hexaene], for which the IC50 is under 0.001 µM.

For the compound `Cc1nnn(C)c1-c1cnc2c3cnc(C(C)(C)O)cc3n([C@H](c3ncccc3F)C3CCOCC3)c2c1` [Example 339], the IC50 is under 0.01 µM.

`[2H]C([2H])([2H])c1nnn(C)c1-c1cnc2c3c(OC)cncc3n([C@H](c3ccccc3)C3CCOCC3)c2c1` [Example 300, 13-Methoxy-5-[4-(^2H3)methyl-1-methyl-1H-1,2,3-triazol-5-yl]-8-[(S)-oxan-4-yl(phenyl)methyl]-3,8,11-triazatricyclo[7.4.0.0^2,^7]trideca-1(9),2(7),3,5,10,12-hexaene]: the half-maximal inhibitory concentration (IC50) was under 0.001 µM.

Take `Cc1nnn(C)c1-c1cnc2c3c(N(C)C)ncc(Cl)c3n([C@H](c3ccccc3)C3CCOCC3)c2c1` [Example 41, 10-Chloro-5-(dimethyl-1H-1,2,3-triazol-5-yl)-N,N-dimethyl-8-[(S)-oxan-4-yl(phenyl)methyl]-3,8,12-triazatricyclo[7.4.0.0^2,^7]trideca-1(13),2(7),3,5,9,11-hexaen-13-amine]: the IC50 was under 0.001 µM.

Consider `COC(=O)c1cnc(OC)c2c3ncc(-c4c(C)nnn4C)cc3n([C@H](c3ccccc3)C3CCOCC3)c12` [Example 135, Methyl 5-(dimethyl-1H-1,2,3-triazol-5-yl)-13-methoxy-8-[(S)-oxan-4-yl(phenyl)methyl]-3,8,12-triazatricyclo[7.4.0.0^2,^7]trideca-1(9),2,4,6,10,12-hexaene-10-carboxylate], for which the IC50 was under 0.001 µM.

For the compound `Cc1nnn(C)c1-c1cnc2c3ccc(N(C)C)nc3n([C@H](c3ccccc3)C3CCOCC3)c2c1` [Example 181, 5-(Dimethyl-1H-1,2,3-triazol-5-yl)-N,N-dimethyl-8-[(S)-oxan-4-yl(phenyl)methyl]-3,8,10-triazatricyclo[7.4.0.0^2,^7]trideca-1(9),2(7),3,5,10,12-hexaen-11-amine], the IC50 was under 0.001 µM.

As for `Cc1nnn(C)c1-c1cnc2c3c(=O)[nH]c(Cl)cc3n(C(c3ncccc3F)C3CCOCC3)c2c1` (stereo not shown) [Example 307, 11-Chloro-8-[(3-fluoropyridin-2-yl)(oxan-4-yl)methyl]-5-[4-(^2H3)methyl-1-methyl-1H-1,2,3-triazol-5-yl]-3,8,12-triazatricyclo[7.4.0.0^2,^7]trideca-1(9),2(7),3,5,10-pentaen-13-one], the IC50 is under 0.01 µM.

With `[2H]C([2H])([2H])c1nnn(C)c1-c1cnc2c3ccc(S(C)(=O)=O)nc3n([C@H](c3ccccc3F)C3CCOCC3)c2c1` [Example 235, 8-[(S)-(2-Fluorophenyl)(oxan-4-yl)methyl]-11-methanesulfonyl-5-[4-(^2H3)methyl-1-methyl-1H-1,2,3-triazol-5-yl]-3,8,10-triazatricyclo[7.4.0.0^2,^7]trideca-1(13),2(7),3,5,9,11-hexaene], the IC50 was under 0.01 µM.

`[2H]C([2H])([2H])c1nnn(C)c1-c1cnc2c3cnc(Cl)cc3n([C@H](c3ccccc3F)C3CCOCC3)c2c1` [Example 315]: the IC50 was under 0.01 µM.

For the compound `[2H]C([2H])([2H])c1nnn(C)c1-c1cnc2c3cnc(S(C)(=O)=O)cc3n([C@H](c3ccccc3)C3CCOCC3)c2c1` [Example 201, 11-Methanesulfonyl-5-[4-(^2H3)methyl-1-methyl-1H-1,2,3-triazol-5-yl]-8-[(S)-oxan-4-yl(phenyl)methyl]-3,8,12-triazatricyclo[7.4.0.0^2,^7]trideca-1(9),2(7),3,5,10,12-hexaene], the IC50 is under 0.01 µM.

In the case of `[2H]C([2H])([2H])c1nnn(C)c1-c1cnc2c3cncc(C(C)(C)O)c3n([C@H](c3ccccc3)C3CCOCC3)c2c1` [Example 291, 2-{5-[4-(^2H3)Methyl-1-methyl-1H-1,2,3-triazol-5-yl]-8-[(S)-oxan-4-yl(phenyl)methyl]-3,8,12-triazatricyclo[7.4.0.0^2,^7]trideca-1(9),2,4,6,10,12-hexaen-10-yl}propan-2-ol], the IC50 is under 0.001 µM.

For `[2H]C([2H])([2H])c1nnn(C)c1-c1cnc2c3c(OC(C)C)nccc3n([C@H](c3ccccc3)C3CCOCC3)c2c1` [Example 131, 5-[4-(^2H3)Methyl-1-methyl-1H-1,2,3-triazol-5-yl]-8-[(S)-oxan-4-yl(phenyl)methyl]-13-(propan-2-yloxy)-3,8,12-triazatricyclo[7.4.0.0^2,^7]trideca-1(13),2(7),3,5,9,11-hexaene], the IC50 is under 0.01 µM.

Broadly, the IC50 is the midpoint of a concentration-inhibition curve.
